The assay has as its target T1, ZIKV NS3-Hel (Zika virus NS3 helicase) (Zika virus ZIKV/H. sapiens/FrenchPolynesia/10087PF/2013, UniProt A0A024B7W1).
T1 construct: helicase domain, residues 171-617 of NS3, cut from the genome polyprotein; N-terminal 6xHis-SUMO tag cleaved off
Put plainly: STD NMR titration; crystal structure also solved. Format: binding.

Each structure is given as a SMILES string.

A word on the Kd: it is the constant that tells how readily two partners part at equilibrium.

T1 sequence (A0A024B7W1 1673-2119): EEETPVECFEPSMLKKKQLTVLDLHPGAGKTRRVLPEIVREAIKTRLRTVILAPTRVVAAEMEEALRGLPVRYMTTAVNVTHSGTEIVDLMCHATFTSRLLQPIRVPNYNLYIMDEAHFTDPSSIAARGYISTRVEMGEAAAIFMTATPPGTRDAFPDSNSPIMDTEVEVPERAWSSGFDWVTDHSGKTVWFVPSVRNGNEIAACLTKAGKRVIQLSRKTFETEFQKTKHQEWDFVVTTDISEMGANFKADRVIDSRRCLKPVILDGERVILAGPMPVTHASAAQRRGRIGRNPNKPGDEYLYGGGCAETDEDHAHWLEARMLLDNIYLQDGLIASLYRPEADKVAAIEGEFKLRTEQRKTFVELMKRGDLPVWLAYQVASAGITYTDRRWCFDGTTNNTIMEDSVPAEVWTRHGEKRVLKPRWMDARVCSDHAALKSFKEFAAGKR

Regarding `NC(=O)c1ccc(Cl)cc1Cl` [compound 4, 2,4-dicholorobenzamide], the Kd was found to be 5.1 ± 1.4 mM. Under `Nc1nc(N)c2[nH]cnc2n1` [compound 1, 2,6-di-aminopurine] stands 2.8 ± 0.4 mM.

The values above are taken from paper PMC6274715, “Discovery of Novel Druggable Sites on Zika Virus NS3 Helicase Using X-ray Crystallography-Based Fragment Screening” (International Journal of Molecular Sciences, 2018).
